# System: adult patients with persistent negative symptoms of schizophrenia
# Format: in vivo, human
# From the text: To assess changes in cognitive impairment associated with schizophrenia (CIAS), secondary endpoints included the 12-week change from baseline in the Brief Assessment of Cognition in Schizophrenia (BACS) composite score, a measure of cognition across multiple domains, and the Schizophrenia Cognition Rating Scale (SCORS) score, a measure of day-to-day cognitive functioning requiring input from an adult informant. Secondary endpoints were not corrected for multiplicity.
# The BACS is specifically designed to measure treatment-related improvements in cognition and includes alternate forms. BACS is a reliable and sensitive measure of cognitive function in schizophrenia. The BACS is a cognition assessment battery that assesses 6 domains of cognitive function found to be consistently impaired in schizophrenia: verbal memory; working memory; motor speed; attention; executive functions; and verbal fluency. The primary measure from each test of the BACS is standardized by creating T-scores whereby the mean of the test session of a matched reference healthy participant is set to 50 and the standard deviation set to 10.
# [1] = 500 mg once daily, preliminary analysis
smiles,measurement,setting,value
"O=c1[nH]nc(CCc2ccc(C(F)(F)F)cc2)cc1O [Compound (I), luvadaxistat]","BACS Composite Score, Week 6, Mean (SD)",[1],35.6 (13.84)
same,"BACS Composite Score, Week 6, Median",[1],38.0
same,"BACS Composite Score, Week 12, Mean (SD)",[1],37.6 (13.86)
same,"BACS Composite Score, Week 12, Median",[1],40.0
same,"BACS Motor Speed Cognition Domain, Change from Baseline to Week 6, Mean (SD)",[1],0.5 (9.53)
same,"BACS Motor Speed Cognition Domain, Change from Baseline to Week 6, Median",[1],2.0
same,"BACS Motor Speed Cognition Domain, Change from Baseline to Week 12, Mean (SD)",[1],2.0 (6.58)
same,"BACS Motor Speed Cognition Domain, Change from Baseline to Week 12, Median",[1],2.0
same,"BACS Motor Speed Cognition Domain, Week 6, Mean (SD)",[1],40.7 (12.38)
same,"BACS Motor Speed Cognition Domain, Week 6, Median",[1],41.0
same,"BACS Motor Speed Cognition Domain, Week 12, Mean (SD)",[1],41.3 (11.31)
same,"BACS Motor Speed Cognition Domain, Week 12, Median",[1],40.0
same,"BACS Verbal Memory Cognition Domain, Change from Baseline to Week 6, Mean (SD)",[1],1.8 (8.65)
same,"BACS Verbal Memory Cognition Domain, Change from Baseline to Week 6, Median",[1],2.0
same,"BACS Verbal Memory Cognition Domain, Change from Baseline to Week 12, Mean (SD)",[1],1.6 (10.04)
same,"BACS Verbal Memory Cognition Domain, Change from Baseline to Week 12, Median",[1],0.0
same,"BACS Verbal Memory Cognition Domain, Week 6, Mean (SD)",[1],42.1 (12.06)
same,"BACS Verbal Memory Cognition Domain, Week 6, Median",[1],42.0
same,"BACS Verbal Memory Cognition Domain, Week 12, Mean (SD)",[1],41.8 (13.82)
same,"BACS Verbal Memory Cognition Domain, Week 12, Median",[1],41.0
same,"BACS Working Memory Cognition Domain, Change from Baseline to Week 6, Mean (SD)",[1],0.5 (7.99)
same,"BACS Working Memory Cognition Domain, Change from Baseline to Week 6, Median",[1],0.0
same,"BACS Working Memory Cognition Domain, Change from Baseline to Week 12, Mean (SD)",[1],1.7 (7.39)
same,"BACS Working Memory Cognition Domain, Change from Baseline to Week 12, Median",[1],0.0
same,"BACS Working Memory Cognition Domain, Week 6, Mean (SD)",[1],40.1 (13.75)
same,"BACS Working Memory Cognition Domain, Week 6, Median",[1],43.0
same,"BACS Working Memory Cognition Domain, Week 12, Mean (SD)",[1],42.6 (13.20)
same,"BACS Working Memory Cognition Domain, Week 12, Median",[1],45.0
same,"BACS Attention Cognition Domain, Change from Baseline to Week 6, Mean (SD)","500 mg, Week 6",0.9 (6.26)
same,"BACS Attention Cognition Domain, Change from Baseline to Week 6, Median","500 mg, Week 6",0.0
same,"BACS Attention Cognition Domain, Week 6, Mean (SD)","500 mg, Week 6",35.5 (12.68)
same,"BACS Attention Cognition Domain, Week 6, Median","500 mg, Week 6",35.0
same,"BACS Executive Functions Cognition Domain, Change from Baseline to Week 6, Mean (SD)","500 mg, Week 6",1.3 (7.62)
same,"BACS Executive Functions Cognition Domain, Change from Baseline to Week 6, Median","500 mg, Week 6",0.0
same,"BACS Executive Functions Cognition Domain, Week 6, Mean (SD)","500 mg, Week 6",47.0 (10.95)
same,"BACS Executive Functions Cognition Domain, Week 6, Median","500 mg, Week 6",51.0
same,"BACS Verbal Fluency Cognition Domain, Change from Baseline to Week 6, Mean (SD)","500 mg, Week 6",0.8 (5.87)
same,"BACS Verbal Fluency Cognition Domain, Change from Baseline to Week 6, Median","500 mg, Week 6",1.0
same,"BACS Verbal Fluency Cognition Domain, Week 6, Mean (SD)","500 mg, Week 6",39.6 (10.14)
same,"BACS Verbal Fluency Cognition Domain, Week 6, Median","500 mg, Week 6",40.0
same,"BACS Attention Cognition Domain, Adjusted Change from Baseline to Week 6, LS Mean (SE)","500 mg, Week 6, MMRM",1.0 (0.96)
same,"BACS Attention Cognition Domain, Difference from Placebo for Week 6, LS Mean (SE)","500 mg, Week 6, MMRM",0.0 (1.15)
same,"BACS Executive Functions Cognition Domain, Adjusted Change from Baseline to Week 6, LS Mean (SE)","500 mg, Week 6, MMRM",1.1 (1.29)
same,"BACS Executive Functions Cognition Domain, Difference from Placebo for Week 6, LS Mean (SE)","500 mg, Week 6, MMRM",2.3 (1.57)
same,"BACS Verbal Fluency Cognition Domain, Adjusted Change from Baseline to Week 6, LS Mean (SE)","500 mg, Week 6, MMRM",0.5 (0.74)
same,"BACS Verbal Fluency Cognition Domain, Difference from Placebo for Week 6, LS Mean (SE)","500 mg, Week 6, MMRM",0.3 (0.89)
same,"BACS Attention Cognition Domain, Change from Baseline to Week 12, Mean (SD)","500 mg, Week 12",3.1 (9.31)
same,"BACS Attention Cognition Domain, Change from Baseline to Week 12, Median","500 mg, Week 12",2.0
same,"BACS Attention Cognition Domain, Week 12, Mean (SD)","500 mg, Week 12",38.0 (14.08)
same,"BACS Attention Cognition Domain, Week 12, Median","500 mg, Week 12",36.0
same,"BACS Executive Functions Cognition Domain, Change from Baseline to Week 12, Mean (SD)","500 mg, Week 12",2.0 (9.28)
same,"BACS Executive Functions Cognition Domain, Change from Baseline to Week 12, Median","500 mg, Week 12",0.0
same,"BACS Executive Functions Cognition Domain, Week 12, Mean (SD)","500 mg, Week 12",48.5 (11.88)
same,"BACS Executive Functions Cognition Domain, Week 12, Median","500 mg, Week 12",51.0
same,"BACS Verbal Fluency Cognition Domain, Change from Baseline to Week 12, Mean (SD)","500 mg, Week 12",1.3 (6.95)
same,"BACS Verbal Fluency Cognition Domain, Change from Baseline to Week 12, Median","500 mg, Week 12",0.0
same,"BACS Verbal Fluency Cognition Domain, Week 12, Mean (SD)","500 mg, Week 12",40.6 (10.30)
same,"BACS Verbal Fluency Cognition Domain, Week 12, Median","500 mg, Week 12",40.0
same,"BACS Attention Cognition Domain, Adjusted Change from Baseline to Week 12, LS Mean (SE)","500 mg, Week 12, MMRM",3.1 (1.09)
same,"BACS Attention Cognition Domain, Difference from Placebo for Week 12, LS Mean (SE)","500 mg, Week 12, MMRM",1.2 (1.33)
same,"BACS Executive Functions Cognition Domain, Adjusted Change from Baseline to Week 12, LS Mean (SE)","500 mg, Week 12, MMRM",2.0 (1.19)
same,"BACS Executive Functions Cognition Domain, Difference from Placebo for Week 12, LS Mean (SE)","500 mg, Week 12, MMRM",1.4 (1.42)
same,"BACS Verbal Fluency Cognition Domain, Adjusted Change from Baseline to Week 12, LS Mean (SE)","500 mg, Week 12, MMRM",0.5 (0.91)
same,"BACS Verbal Fluency Cognition Domain, Difference from Placebo for Week 12, LS Mean (SE)","500 mg, Week 12, MMRM",−0.5 (1.11)

# — patent US20240408086A1, “USE OF LUVADAXISTAT FOR THE TREATMENT OF COGNITIVE IMPAIRMENT” (TAKEDA PHARMACEUTICAL COMPANY LIMITED, priority 2021, published 2024)
